Measured values reported in PMC12195648 (Pharmaceuticals, 2025).

test system: KCL22 cells; assay: Cytotoxicity, resazurin assay, KCL22; type: cell-based, human; conditions: Homo sapiens, KCL-22; 72 h, resazurin, GI50 ± SD
Procedure: (§1) The development of the KCL22 subclone B8 (T315I, 100%) has been previously detailed. All cell lines were maintained in a humidified incubator at 37 °C and 5% CO2, following the manufacturer’s instructions, in the appropriate medium supplemented with 10% foetal bovine serum, penicillin (100 IU/mL), streptomycin (100 µg/mL), and glutamine (4 mM).
(§2) Cytotoxicity was assessed utilizing resazurin, an indicator dyes that measures oxidation-reduction reactions in the mitochondria of living cells. Cells were seeded into 96-well plates and treated with the compounds for 72 h (six different doses of each compound, in triplicate).

Compound | GI50
Cc1ccc(NC(=O)c2ccc(CN3CCN(C)CC3)cc2)cc1Nc1nccc(-c2cccnc2)n1 [imatinib, reference compound] | 9260 ± 1000 nM

test system: Bcr-Abl; assay: not given; conditions: 58-purine 3D-QSAR database, Table S3; cited from earlier work

Compound | pIC50 Exp
CN1CCN(c2ccc(Nc3nc(Nc4cccc(F)c4)c4ncn(CC5CC5)c4n3)cc2)CC1 [Compound 3] | 7.398
CN1CCN(c2ccc(Nc3nc(Nc4ccc(F)c(F)c4)c4ncn(CC5CC5)c4n3)cc2)CC1 [Compound 4] | 7.398
COc1cc(Nc2nc(Nc3ccc(N4CCN(C)CC4)cc3)nc3c2ncn3CC2CC2)c(OC)cc1Cl [Compound 5] | 4.444
COc1cc(Cl)ccc1Nc1nc(Nc2ccc(N3CCN(C)CC3)cc2)nc2c1ncn2CC1CC1 [Compound 6] | 6.097
CN1CCN(c2ccc(Nc3nc(Nc4ccccc4)c4ncn(CC5CC5)c4n3)cc2F)CC1 [Compound 7] | 6.237
CN1CCN(c2ccc(Nc3nc(Nc4ccc(F)cc4)c4ncn(CC5CC5)c4n3)cc2F)CC1 [Compound 8] | 5.971
CN1CCN(c2ccc(Nc3nc(Nc4cccc(F)c4)c4ncn(CC5CC5)c4n3)cc2F)CC1 [Compound 9] | 6.222
CN1CCN(c2ccc(Nc3nc(Nc4ccc(F)c(F)c4)c4ncn(CC5CC5)c4n3)cc2F)CC1 [Compound 10] | 6.237
COc1ccc(Nc2nc(Nc3ccc(N4CCN(C)CC4)c(F)c3)nc3c2ncn3CC2CC2)cc1 [Compound 11] | 6.469
COc1cc(Cl)ccc1Nc1nc(Nc2ccc(N3CCN(C)CC3)c(F)c2)nc2c1ncn2CC1CC1 [Compound 13] | 5.074
CN1CCN(c2ccc(Nc3nc(Nc4ccccc4F)c4ncn(CC5CC5)c4n3)cc2)CC1 [Compound 14] | 5.378
CN1CCN(c2ccc(Nc3nc(Nc4cccc(C#N)c4)c4ncn(CC5CC5)c4n3)cc2)CC1 [Compound 15] | 7.155
Cc1cccc(Nc2nc(Nc3ccc(N4CCN(C)CC4)cc3)nc3c2ncn3CC2CC2)c1 [Compound 16] | 7.000
CN1CCN(c2ccc(Nc3nc(Nc4cccc(Cl)c4)c4ncn(CC5CC5)c4n3)cc2)CC1 [Compound 17] | 6.921
CN1CCN(c2ccc(Nc3nc(Nc4cccc(C(F)(F)F)c4)c4ncn(CC5CC5)c4n3)cc2)CC1 [Compound 18] | 5.75
CN1CCN(c2ccc(Nc3nc(Nc4cccc(OC(F)(F)F)c4)c4ncn(CC5CC5)c4n3)cc2)CC1 [Compound 19] | 5.939
CN1CCN(c2ccc(Nc3nc(Nc4cccc([N+](=O)[O-])c4)c4ncn(CC5CC5)c4n3)cc2)CC1 [Compound 20] | 6.770
CN1CCN(c2ccc(Nc3nc(Nc4ccc(OC(F)(F)F)cc4)c4ncn(CC5CC5)c4n3)cc2)CC1 [Compound 21] | 6.409
CN1CCN(c2ccc(Nc3nc(Nc4ccc([N+](=O)[O-])cc4)c4ncn(CC5CC5)c4n3)cc2)CC1 [Compound 22] | 6.886
CN1CCN(c2ccc(Nc3nc(Nc4ccc(C#N)cc4)c4ncn(CC5CC5)c4n3)cc2)CC1 [Compound 23] | 7.000
COC(=O)c1ccc(Nc2nc(Nc3ccc(N4CCN(C)CC4)cc3)nc3c2ncn3CC2CC2)cc1 [Compound 24] | 7.398
CN1CCN(c2ccc(Nc3nc(Nc4ccc(F)c(Cl)c4)c4ncn(CC5CC5)c4n3)cc2)CC1 [Compound 25] | 6.569
CN1CCN(c2ccc(Nc3nc(Nc4ccc(Cl)c(Cl)c4)c4ncn(CC5CC5)c4n3)cc2)CC1 [Compound 26] | 7.155
CN1CCN(c2ccc(Nc3nc(Nc4ccc(Cl)c(F)c4)c4ncn(CC5CC5)c4n3)cc2)CC1 [Compound 27] | 6.699
CN1CCN(c2ccc(Nc3nc(Nc4ccc(OC(F)(F)F)c([N+](=O)[O-])c4)c4ncn(CC5CC5)c4n3)cc2)CC1 [Compound 28] | 6.357
CN1CCN(C(=O)c2ccc(Nc3nc(Nc4ccccc4)c4ncn(CC5CC5)c4n3)cc2)CC1 [Compound 29] | 5.917

Compound | pIC50 Exp
CN1CCN(C(=O)c2ccc(Nc3nc(Nc4cccc(F)c4)c4ncn(CC5CC5)c4n3)cc2)CC1 [Compound 30] | 6.244
CN1CCN(C(=O)c2ccc(Nc3nc(Nc4ccc(F)c(F)c4)c4ncn(CC5CC5)c4n3)cc2)CC1 [Compound 31] | 6.027
CCCCCCCCn1cnc2c(Nc3ccc(F)c(F)c3)nc(Nc3ccc(N4CCN(C)CC4)cc3)nc21 [Compound 32] | 4.063
CC(C)CCn1cnc2c(Nc3cccc(F)c3)nc(Nc3ccc(N4CCN(C)CC4)cc3)nc21 [Compound 34] | 4.301
CCCCCn1cnc2c(Nc3ccccc3)nc(Nc3ccc(N4CCN(C)CC4)cc3)nc21 [Compound 35] | 5.910
CC(C)CCn1cnc2c(Nc3ccccc3)nc(Nc3ccc(N4CCN(C)CC4)cc3)nc21 [Compound 36] | 5.750
CCCCCn1cnc2c(Nc3ccc(F)c(F)c3)nc(Nc3ccc(N4CCN(C)CC4)cc3)nc21 [Compound 37] | 5.866
CCCCCCn1cnc2c(Nc3ccccc3)nc(Nc3ccc(N4CCN(C)CC4)cc3)nc21 [Compound 38] | 5.008
CCCCCCn1cnc2c(Nc3ccc(F)c(F)c3)nc(Nc3ccc(N4CCN(C)CC4)cc3)nc21 [Compound 40] | 4.469
CCCCCn1cnc2c(Nc3cccc(F)c3)nc(Nc3ccc(N4CCN(C)CC4)cc3)nc21 [Compound 42] | 6.187
CC(C)CCn1cnc2c(Nc3ccc(F)c(F)c3)nc(Nc3ccc(N4CCN(C)CC4)cc3)nc21 [Compound 43] | 5.642
CN1CCN(c2ccc(Nc3nc(Nc4ccccc4)c4ccn(CC5CC5)c4n3)cc2)CC1 [Compound 44] | 4.206
CN1CCN(Cc2ccc(Nc3nc(Nc4cccc(F)c4)c4ncn(CC5CC5)c4n3)cc2)CC1 [Compound 45] | 6.744
CN1CCN(c2ccc(Nc3nc(N)c4ncn(CC5CC5)c4n3)cc2)CC1 [Compound 46] | 5.403
CN1CCN(c2ccc(Nc3nc(NC4CCCCC4)c4ncn(CC5CC5)c4n3)cc2)CC1 [Compound 47] | 4.956
CN1CCN(Cc2ccc(Nc3nc(Nc4ccc(F)c(F)c4)c4ncn(CC5CC5)c4n3)cc2)CC1 [Compound 48] | 6.649
CN1CCN(c2ccc(Nc3nc(NCc4ccccc4)c4ncn(CC5CC5)c4n3)cc2)CC1 [Compound 49] | 6.076
OCCN1CCN(c2ccc(Nc3nc(Nc4ccc(F)c(F)c4)c4ncn(CC5CC5)c4n3)cc2)CC1 [Compound 52] | 7.703
CC(C)CCn1cnc2c(Nc3ccccc3)nc(Nc3ccc(N4CCN(CCO)CC4)cc3)nc21 [Compound 53] | 5.907
CC(C)CCn1cnc2c(Nc3cccc(F)c3)nc(Nc3ccc(N4CCN(CCO)CC4)cc3)nc21 [Compound 54] | 6.886
CC(C)CCn1cnc2c(Nc3ccc(F)c(F)c3)nc(Nc3ccc(N4CCN(CCO)CC4)cc3)nc21 [Compound 55] | 5.754
CCCCCCn1cnc2c(Nc3ccccc3)nc(Nc3ccc(N4CCN(CCO)CC4)cc3)nc21 [Compound 56] | 6.081
CCCCCCn1cnc2c(Nc3cccc(F)c3)nc(Nc3ccc(N4CCN(CCO)CC4)cc3)nc21 [Compound 57] | 6.174
CCCCCCn1cnc2c(Nc3ccc(F)c(F)c3)nc(Nc3ccc(N4CCN(CCO)CC4)cc3)nc21 [Compound 58] | 5.775
OCCN1CCN(c2ccc(Nc3nc(Nc4cccc(F)c4)c4ncn(CC5CC5)c4n3)cc2)CC1 [VII] | 7.833

same assay, conditions: earlier purines of the group; cited from earlier work

Compound | IC50
CCCCCCCCn1cnc2c(Nc3ccc(F)c(F)c3)nc(Nc3ccc(N4CCN(C)CC4)cc3)nc21 [Compound 32] | 86500 nM
OCCN1CCN(c2ccc(Nc3nc(Nc4cccc(F)c4)c4ncn(CC5CC5)c4n3)cc2)CC1 [VII] | 15 nM
CN1CCN(c2ccc(Nc3nc(Nc4cccc(C#N)c4)c4ncn(CC5CC5)c4n3)cc2)CC1 [X] | 70 nM

test system: HEK-293T cells; assay: Cytotoxicity, resazurin assay, non-neoplastic HEK-293T; type: cell-based; conditions: Homo sapiens, 72 h, GI50 ± SD
Procedure: as §1, with “The human cell line KCL22 was sourced from the German Collection of Microorganisms and Cell Cultures, while K562 and HEK-293T cells were obtained from the European Collection of Authenticated Cell Cultures. The” for “The”
Cytotoxicity was assessed utilizing resazurin, an indicator dyes that measures oxidation-reduction reactions in the mitochondria of living cells. Cells were seeded into 96-well plates and treated with the compounds for 72 h (six different doses of each compound, in triplicate). After treatment, a solution of resazurin (Merck, Prague, Czech Republic) was added for 4 h, and the fluorescence of resorufin corresponding to viable cell quantity was measured at 544 nm/590 nm (excitation/emission) using a Fluoroskan Ascent microplate reader (LabSystems, Helsinki, Finland).

Compound | GI50
Cc1ccc(NC(=O)c2ccc(CN3CCN(C)CC3)cc2)cc1Nc1nccc(-c2cccnc2)n1 [imatinib, reference compound] | > 10000 nM

test system: K562 cells; assay: Cytotoxicity, resazurin assay, K562; type: cell-based, human; conditions: Homo sapiens, K562; 72 h, resazurin, GI50 ± SD
Procedure: as §1, §2

Compound | GI50
Cc1ccc(NC(=O)c2ccc(CN3CCN(C)CC3)cc2)cc1Nc1nccc(-c2cccnc2)n1 [imatinib, reference compound] | 230 ± 10 nM
